Measurements published in US20260193227A1, “THERAPEUTIC COMPOUNDS AND METHODS” (UNIVERSITY OF IOWA RESEARCH FOUNDATION, priority 2022, published 2026).
Where a chain is given by its changes, count along the chain named. “Also recorded” adds a separate entry of the source.

Columns and labels:
RAD52-ssDNA interaction = target: T1, RAD52-ssDNA interaction (Homo sapiens, UniProt P43351); assay: FRET-based inhibition of the RAD52-ssDNA interaction; format: binding; conditions: for effect on the RAD52-ssDNA complex / capacity to inhibit RAD52: FRET titration; for selectivity towards RAD52 over RPA: in vitro FRET-based assays
T1 construct: 6xHis; made in house
T1 sequence (P43351 1-418): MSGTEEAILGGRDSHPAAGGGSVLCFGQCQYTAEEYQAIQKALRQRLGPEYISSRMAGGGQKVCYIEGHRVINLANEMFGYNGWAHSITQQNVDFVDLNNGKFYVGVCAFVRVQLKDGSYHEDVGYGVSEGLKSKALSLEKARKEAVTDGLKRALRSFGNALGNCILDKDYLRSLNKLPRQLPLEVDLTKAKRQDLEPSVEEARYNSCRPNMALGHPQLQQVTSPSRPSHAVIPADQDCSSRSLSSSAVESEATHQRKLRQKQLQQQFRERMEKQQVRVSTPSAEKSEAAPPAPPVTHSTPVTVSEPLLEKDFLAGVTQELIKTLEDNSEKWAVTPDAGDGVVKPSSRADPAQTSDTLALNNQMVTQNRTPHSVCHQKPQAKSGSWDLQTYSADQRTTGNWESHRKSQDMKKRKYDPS
Experimental: (§1) Proteins: The 6×His-tagged human RAD52 proteins (wild type and mutants) and untagged human RPA were expressed and purified as previously described in (Hengel S R, eLife. 2016; 5; Grimme J M, et al., Nucleic Acids Res. 2010; 38(9):2917-30; and Henricksen L A, et al., The Journal of biological chemistry. 1994; 269(15):11121-32). RPA and RAD52 protein concentrations were determined by measuring absorbance at 280 nm using extinction coefficients of 88,830 M^−1 cm^−1 and 40,470 M^−1 cm^−1, respectively.
(§2) FRET-based DNA binding and inhibition assays: FRET-based that monitor the RAD52-ssDNA, RPA-ssDNA and RAD52-RPA-ssDNA binding were carried out as previously described (Hengel S R, eLife. 2016; 5; Grimme J M, et al., Nucleic Acids Res. 2010; 38(9):2917-30; and Grimme J M, Spies M. FRET-based assays to monitor DNA binding and annealing by Rad52 recombination mediator protein. Methods in molecular biology (Clifton, NJ). 2011; 745:463-83) using Cary Eclipse Spectrofluorimeter (Agilent) at 25° C., in 5 mm quartz cuvettes, and in buffer containing 30 mM Tris-Acetate (pH 7.5) and 1 mM DTT. Cy3 dye was excited at 530 nm and its emission was monitored at 565 nm. Emission of Cy5 acceptor fluorophore excited through the energy transfer from Cy3 donor is monitored at 660 nm simultaneously with emission of Cy3 dye. Both the excitation and the emission slits were set to 10 nm. All experiments were carried out using 1 nM (molecules) Cy3-dT30-Cy5 ssDNA. The optimal concentrations of the RAD52 (6 nM) and RPA (1 nM) proteins were selected by titrating the respective protein into 1 nM Cy3-dT30-Cy5 solution, and chosen based on the largest separation of the FRET values corresponding to the protein bound and free DNA.
(§3) The inhibition of the RAD52-ssDNA, RPA-ssDNA and RAD52-RPA-ssDNA complexes was evaluated by titrating each compound to the respective complex, measuring Cy3 and Cy5 fluorescence, and calculating FRET as previously described (Hengel, S. R., et al., eLife, 5).
(§4) Spectral properties of many compounds overlapped with the Cy3 and Cy5 fluorescence. To correct the calculated FRET values for the compound signal, the fluorogenic compounds were titrated into buffer and into solution of 1 nM Cy3-dT30-Cy5. For all tested compounds, the change in the signal in the Cy3 and Cy5 channels with and without Cy3/Cy5-labeled DNA present was the same. […] To account for the dye fluorescence, for each compound concentration, the apparent change in FRET of the ssDNA in the presence the compound was subtracted from the respective FRET signal of the RAD52-ssDNA, RPA-ssDNA or RAD52-ssDNA-RPA complex at the same inhibitor concentration. The IC50 values were calculated by fitting the corrected FRET data to the four-parameter dose response model using GraphPad Prism. All data are shown as average for at least three independent experiments ±standard deviation. The IC50 values are presented with their respective fitting error.

RPA-ssDNA interaction = target: T2, RPA-ssDNA interaction (Homo sapiens, UniProt P27694); assay: FRET-based inhibition of the RPA-ssDNA interaction; format: binding; conditions: FRET titration
T2 construct: made in house
T2 sequence (P27694 whole entry): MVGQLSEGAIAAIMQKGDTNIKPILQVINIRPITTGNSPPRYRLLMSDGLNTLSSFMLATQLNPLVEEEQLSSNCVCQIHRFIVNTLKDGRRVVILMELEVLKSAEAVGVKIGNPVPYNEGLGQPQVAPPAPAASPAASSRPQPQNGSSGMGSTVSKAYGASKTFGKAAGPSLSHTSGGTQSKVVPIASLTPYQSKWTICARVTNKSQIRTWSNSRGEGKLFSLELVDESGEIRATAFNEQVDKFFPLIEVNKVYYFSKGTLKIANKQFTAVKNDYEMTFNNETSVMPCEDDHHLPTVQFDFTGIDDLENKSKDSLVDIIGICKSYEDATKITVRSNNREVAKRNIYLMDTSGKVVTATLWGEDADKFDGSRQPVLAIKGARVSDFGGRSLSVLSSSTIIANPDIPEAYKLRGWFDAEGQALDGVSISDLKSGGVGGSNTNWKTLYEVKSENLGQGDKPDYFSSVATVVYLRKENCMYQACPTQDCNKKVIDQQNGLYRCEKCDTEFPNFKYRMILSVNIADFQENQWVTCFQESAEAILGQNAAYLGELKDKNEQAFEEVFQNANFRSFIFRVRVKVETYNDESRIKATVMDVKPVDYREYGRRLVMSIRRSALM
T2 sequence (P15927 whole entry partner): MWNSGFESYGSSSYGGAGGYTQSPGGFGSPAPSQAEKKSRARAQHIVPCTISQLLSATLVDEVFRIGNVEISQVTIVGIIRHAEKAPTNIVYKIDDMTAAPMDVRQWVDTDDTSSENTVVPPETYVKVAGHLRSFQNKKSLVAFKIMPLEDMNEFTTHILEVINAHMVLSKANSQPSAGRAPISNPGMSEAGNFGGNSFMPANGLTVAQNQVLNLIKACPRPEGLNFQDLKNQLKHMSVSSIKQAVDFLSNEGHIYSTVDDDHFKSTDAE
T2 sequence (P35244 whole entry partner): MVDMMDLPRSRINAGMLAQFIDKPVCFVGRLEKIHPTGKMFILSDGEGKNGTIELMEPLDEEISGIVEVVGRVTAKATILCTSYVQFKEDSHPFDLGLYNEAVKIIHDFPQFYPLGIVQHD
Experimental: as §1, §2, §3, §4

[1] = target: T3, RAD52 IB mutant (K152A/R153A) (Homo sapiens, UniProt P43351, K152A/R153A); assay: FRET-based inhibition of ssDNA binding, inner binding defective RAD52 mutant
T3 construct: 6xHis; made in house
T3 sequence (P43351 1-418 K152A/R153A): T1 sequence (P43351 1-418) with K152A, R153A
Experimental: as §1
as §2, with “Both the excitation and the emission slits were set to 10 nm. All experiments were carried out using 1 nM (molecules) Cy3-dT30-Cy5 ssDNA. The optimal concentrations of the RAD52 (6 nM) and RPA (1 nM) proteins were selected by titrating the respective protein into 1 nM Cy3-dT30-Cy5 solution, and chosen based on the largest separation of the FRET values corresponding to the protein bound and free DNA.” left out
Spectral properties of many compounds overlapped with the Cy3 and Cy5 fluorescence. […]

| Structure (SMILES) | effect on the RAD52-ssDNA complex / capacity to inhibit RAD52 (RAD52-ssDNA interaction) | selectivity towards RAD52 over RPA (RAD52-ssDNA interaction; listed as Z99) | effect on the RPA-ssDNA complex (RPA-ssDNA interaction) | inhibition of ssDNA binding to IB mutant RAD52 [1] | selectivity towards RAD52 over RPA (RAD52-ssDNA interaction; listed as Z56) | effect on the RPA-ssDNA complex (RPA-ssDNA interaction; listed as Z56) |
| --- | --- | --- | --- | --- | --- | --- |
| O=C(Cn1cccc([N+](=O)[O-])c1=O)c1c[nH]c2ccccc12 [Example 1] | FRET decrease | more promiscuous also inhibiting RPA; also recorded: more promiscuous, inhibited RPA in vitro | yields FRET values corresponding to the free ssDNA | able to inhibit | – | – |
| COc1ccccc1NS(=O)(=O)c1cc(C(=O)O)ccc1C [Example 8] | FRET decrease | – | – | able to inhibit | specific to RAD52 over RPA in vitro; also recorded: shows selectivity towards RAD52 over RPA | does not change the FRET values of the RPA-ssDNA complex; also recorded: no effect on the RPA-ssDNA complex |
